Patent publication US20250144050A1, “AMINOTHIOL-CONJUGATES, COMPOSITIONS, AND METHODS OF USE THEREOF” (THE BURLINGTON HC RESEARCH GROUP, INC., priority 2021, published 2025)

Assays:
[1] = tested on: NCI-H460 NSCLC cells; type: cell-based
Experimental: (§1) Trypan Blue exclusion was applied as a complementary confirmation probe for cell death.
(§2) Statistical comparisons of differences in individual dose-response metrics between individual/paired drug treatments and various cell lines were conducted using the Student's t-test, with P-values <0.05 considered significant.
(§3) Relative cell growth inhibition values for differing levels each drug alone and in combination were input into SynergyFinder to generated dose-response curves for each drug alone, to produce a dose-response matrix, to visualize the distribution of areas of differing degrees of synergism in a 2-dimension heatmap and 3-dimension volcano plot, and to calculate average and maximum synergy scores in selected human cancer cell lines. […] Synergy scores <10 means that the interaction between two drugs was likely to be antagonistic; scores from −10 to 10 means the interaction between two drugs was likely to be additive; and scores >10 means the interaction between two drugs was likely to be synergistic.

[2] = tested on: H1437 NSCLC cells; experiment: Alamar Blue (resazurin) cellular reducing capacity; type: cell-based, human; details: until cell numbers reduced to approximately 50% of controls
Excerpt: The aminothiol-conjugates of the present disclosure (e.g., 4SP65 and 1LP65) are disulfides that require reduction by glutathione or thioredoxin for the two constituent molecules (WR1065 and PEG-SH scaffold) to be released. […] After an aminothiol-conjugate of the present disclosure (e.g., 4SP65 and 1LP65) enters the cytoplasm, either glutathione or thioredoxin reduces the BRG disulfide bond (Rxn #1) to yield reduced WR1065 and PEG-SH scaffold. In normal cells with a reducing cytosolic redox balance, evidence of formation of free radical intermediates during this reaction has not been reported, but formation of […] has been reported (Nagy, P., “Kinetics and Mechanisms of Thiol-Disulfide Exchange Covering Direct Substitution and Thiol Oxidation-Mediated Pathways,” Antioxid Redox Signal 18 (13): 1623-1641 (2013), which is hereby incorporated by reference in its entirety). Conversely, in cancer cells where the cellular environment is shifted towards oxidizing conditions, there is evidence that reactive species such as thiyl free radicals can be formed (Nagy, P., “Kinetics and Mechanisms of Thiol-Disulfide Exchange Covering Direct Substitution and Thiol Oxidation-Mediated Pathways,” Antioxid. Redox Signal 18 (13): 1623-1641 (2013), which is hereby incorporated by reference in its entirety), which can have adverse effects in neoplastic cells. […]

[3] = tested on: TOV21G ovarian cancer cells; type: cell-based
Experimental: as §1, §2, §3

[4] = tested on: H1975 cells
Experimental: as §1, §2, §3

[5] = tested on: PPM-Mill malignant mesothelioma cells; type: cell-based
Experimental: as §1, §2, §3

[6] = tested on: HMESO-1 malignant mesothelioma cells; type: cell-based
Experimental: as §1, §2, §3

[7] = tested on: DU-145; experiment: Trypan Blue cell count after 48 hour exposure; type: cell-based, human; details: read-out: Average Growth Inhibitory Dose 50% [EC50], Prostate CA (DU-145)
Experimental: To evaluate the anticancer activity of 4-arm star polyethylene glycol conjugated to WR-1065 (4SP65), the anticancer efficacy of 4SP65 was determined in some of the same cell lines used by NIH/NCI, and the methodology used was the same as is used by the NCI to evaluate chemotherapeutic agents currently in use (O'Connor et al., “Characterization of the p53 Tumor Suppressor Pathway in Cell Lines of the National Cancer Institute Anticancer Drug Screen and Correlations With the Growth-Inhibitory Potency of 123 Anticancer Agents,” Cancer Res. 57 (19): 4285-300 (1997), which is hereby incorporated by reference in its entirety). Testing of 6 cancer types was completed: (i) breast cancer (MDA-MB-231 cells), (ii) lung cancer (A549), (iii) prostate cancer cell line (LNCaP), (iv) myelogenous leukemia (HL60 cells), (v) ovarian cancer (SK-OV-3), and (vi) prostate cancer (DU-145).
Each cell line was grown in medium as recommended by the ATCC or as presented in the literature for that cell line. All cells were cultured in a water jacket incubator at 36-37° C. and in the presence of 5% CO2. To ensure optimal growth and viability, all cells were grown on plates coated with FNC (In Vitrogen). Cells were refed with growth medium twice weekly until they had reached 60 to 70% confluence. At this point, the medium was replaced with growth medium supplemented with 4SP65 at doses ranging from 0 to up to 300 micromolar. Cells were allowed to grow in the presence of this supplemented medium for 48 hours, and then they were removed by trypsinization, stained with Trypan Blue and counted in a hemocytometer. Three to four replicates for each dose group per experiment were performed. The percentage cell death was determined by comparing the average number of surviving cells exposed to 4SP65 versus the average number of surviving sham exposed cells.

[8] = tested on: PC3 cells; experiment: CyQUANT cell viability assay, 48-hour exposure; type: cell-based; details: Homo sapiens, PC-3
Experimental: After drug treatments, fluorescence readings from 96-well plates were obtained using the CyQUANT dye and compared to standard curves for each cell line to determine cell viability. […] Trypan blue exclusion was used to estimate cell numbers in a few pilot experiments and was thereafter applied to confirm cell death.
A series of experiments was conducted to assess the relative efficacy of 4SP65, 1LP65, and amifostine as single agents in the same human cancer cell lines. First, the effectiveness of 4SP65 was tested against 15 cancer cell lines derived from seven tissues. […]
Trans. […] Using cell numbers based on fluorescence measurements and standard curves [time zero, (Tz), control growth, (C), and test growth in the presence of drug at five or more concentration levels (Ti)], the percentage growth was calculated at each drug concentration level. The percentage of growth inhibition was calculated as follows:
The LC50/99 was calculated using Equation 2=−50 and Eq. 2=−99, respectively. […] For NHMECs, the relationships between drug exposure levels and fluorescence units were used to define dose-response metrics. The selectivity index (SI) values for individual drug treatments were calculated as IC50 levels in NHMECs divided by the IC50 values in cancer cell lines.

[9] = NCI-H460, each drug alone, 48 h
[10] = PPM-Mill, each drug alone, 48 h

## 4-star PEG-S-S-WR1065 [4SP65]
[1]
  CC50: 17.6 ± 0.5 µM
[1]; NCI-H460, drug alone vs in 4SP65-cisplatin combination
  Fold increase in efficacy at GI50: 36 fold
[1]; [9]
  GI50: 12.3 ± 1.1 µM
  IC50: 13.3 ± 1 µM
  LC99: 18.2 ± 0.4 µM
  TGI: 16.9 ± 0.6 µM
[2]
  cellular reducing capacity relative to control cells: ~100%
[3]
  CC50: 2.7 ± 0.1 µM
[3]; TOV21G, 4SP65-cisplatin combined, 48 h
  LC99, amount of each drug in combination: 0.95 µM
[3]; TOV21G, each drug alone, 48 h
  GI50: 0.93 ± 0.37 µM
  IC50: 1.2 ± 0.3 µM
  LC99: 3.0 µM
  TGI: 2.0 ± 0.4 µM
[4]
  CC50: 7.2 ± 1.4 µM
[4]; H1975, each drug alone, 48 h
  GI50: 3.2 ± 1.1 µM
  IC50: 3.5 ± 0.9 µM
  LC99: 8.9 ± 1.6 µM
  TGI: 5.5 ± 1.4 µM
[5]
  CC50: 16.2 ± 3.2 µM
[5]; [10]
  GI50: 8.4 ± 1.5 µM
  IC50: 10 ± 1.9 µM
  LC99: 17.6 ± 3.5 µM
  TGI: 14.1 ± 3.3 µM
[6]
  CC50: 7 ± 0.1 µM
[6]; HMESO-1, each drug alone, 48 h
  GI50: 2 ± 0.3 µM
  IC50: 4.7 ± 0.2 µM
  LC99: 12.4 ± 0.1 µM
  TGI: 4.3 ± 0.2 µM
[7]
  EC50: 6.7 µM

## COCCOCCOCCOCCOCCOCCSSCCNCCCN [1LP65, m-PEG6-S-S-WR1065]
[8]
  GI50: 22.9 µM
